Laboratory results from paper PMC8370991, “Structural basis for the inhibition of HTLV-1 integration inferred from cryo-EM deltaretroviral intasome structures” (Nature Communications, 2021).
Where two headings read alike, the source gives them in different places.

Biological target: T1, recombinant HTLV-1 IN (Human T-cell leukemia virus 1, UniProt P03362)
T1 construct: made in house
Assay: In vitro integration strand transfer assay with HTLV-1 IN
Assay type: biochemical
Conditions: for HTLV-1 IN strand transfer activity (No drug = 100): INSTI at 634 nM
Description: We used in vitro strand transfer assays to screen this small molecule library for its ability to inhibit recombinant HTLV-1 IN. The enzyme was incubated with an oligonucleotide vDNA donor mimic in the presence or absence of INSTIs and was allowed to react with a supercoiled plasmid mimicking target DNA. During the screening, the concentration of each compound was adjusted to 634 nM to provide optimal resolution of efficacy between well- and under-performing compounds.
The donor vDNA that mimics the 3′-processed LTR of HTLV-1 or STLV-1 DNA was preassembled by annealing the U5_S20Q_UP and U5_S20Q_B or MarB43_U5_S30UP or MarB43_U5_S30B oligonucleotides, respectively (Supplementary Table 4) in 100 mM Tris pH 7.4, 400 mM NaCl. For HTLV-1 IN, strand transfer reactions were conducted in a solution of 24.3 mM PIPES pH 6.0, 138.4 mM NaCl, 16.6 mM MgCl2, 5.8 μM ZnCl2, 12.7 mM DTT, 0.53 μM donor DNA and 4 μg of HTLV-1 IN[9],[39]. In brief, the reaction was incubated at RT for 15 min in the presence of an INSTI or dimethyl sulfoxide (DMSO) control and the reaction was started by the addition of 300 ng of pGEM-9Zf(-) supercoiled plasmid DNA. The reaction was incubated for 1 h at 37 °C and stopped by adding 0.5% SDS and 25 mM ethylenediaminetetraacetic acid (EDTA), pH 8.0.
Proteins were degraded by incubation with 30 μg of proteinase K (Roche) at 37 °C for 1 h. DNA was precipitated at −20 °C overnight in the presence of ethanol supplemented with 20 μg of glycogen and then resuspended in 1.5× agarose loading dye. The DNA products were separated by electrophoresis through 1.5% agarose gel and stained with ethidium bromide and imaged using the BioRad GelDox XR + imager. The data were analysed and the IC50 calculated as previously described. In brief, the DNA band that corresponds to the concerted integration product was quantified by densitometry in ImageLab 4.1 (Bio-Rad). All experiments were done in triplicate. Quantified data points were fitted to dose–response curves in Prism 9. The cumulative standard deviation for each drug was calculated as an average of the upper limit and lower limit values: Lowerlimit=IC50/10^logSE(IC50) Upperlimit=IC50×10^logSE(IC50)

[1] = Replicate 1, read-out: HTLV-1 IN strand transfer IC50
[2] = Replicate 2, read-out: HTLV-1 IN strand transfer IC50
[3] = Replicate 3, read-out: HTLV-1 IN strand transfer IC50
[4] = integrase strand-transfer drug titration, n = 3, read-out: HTLV-1 IC50 ± stdev

T1 sequence (P03362 1168-1462): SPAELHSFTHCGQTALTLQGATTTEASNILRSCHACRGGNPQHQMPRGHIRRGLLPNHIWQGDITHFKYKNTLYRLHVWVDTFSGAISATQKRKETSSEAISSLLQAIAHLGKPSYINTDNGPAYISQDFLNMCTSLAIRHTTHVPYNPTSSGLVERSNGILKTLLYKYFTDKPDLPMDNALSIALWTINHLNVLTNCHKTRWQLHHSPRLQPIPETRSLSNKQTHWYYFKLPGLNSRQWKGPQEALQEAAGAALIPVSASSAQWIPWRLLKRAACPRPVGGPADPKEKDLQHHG

SMILES | HTLV-1 IN strand transfer activity (No drug = 100) (Replicate 1) | HTLV-1 IN strand transfer activity (No drug = 100) (Replicate 2) | HTLV-1 IN strand transfer activity (No drug = 100) (Replicate 3) | IC50 [1] | IC50 [2] | IC50 [3] | IC50 compared with that of RAL (dose-response strand transfer assays) | IC50 [4]
COC(=O)CCc1c2c(c(O)c(=O)n1C(C)C)C(=O)N(Cc1ccc(F)c(Cl)c1)C2=O [XZ220, methyl 3-(2-(3-chloro-4-fluorobenzyl)-7-hydroxy-5-isopropyl-1,3,6-trioxo-2,3,5,6-tetrahydro-1H-pyrrolo[3,4-c]pyridin-4-yl)propanoate] | 93.628% | 97.195% | 85.9754% | – | – | – | – | –
CCN1CCn2c(c3c(c(O)c2=O)C(=O)N(Cc2ccc(F)c(Cl)c2)C3=O)C1=O [XZ256, 9-(3-chloro-4-fluorobenzyl)-2-ethyl-7-hydroxy-3,4-dihydropyrrolo[3',4':3,4]pyrido[1,2-a]pyrazine-1,6,8,10(2H,9H)-tetraone] | 112.467% | 93.5244% | 114.376% | – | – | – | – | –
Nc1c(C(=O)NCc2ccc(F)cc2F)c(=O)n(O)c2nc(N3CCOCC3)ccc12 [XZ413, 4-amino-N-(2,4-difluorobenzyl)-1-hydroxy-7-morpholino-2-oxo-1,2-dihydro-1,8-naphthyridine-3-carboxamide] | 103.686% | 92.8191% | 81.1252% | – | – | – | – | –
Nc1c(C(=O)NCc2ccc(F)cc2F)c(=O)n(O)c2ncc(-c3ccccc3)cc12 [XZ420, 4-amino-N-(2,4-difluorobenzyl)-1-hydroxy-2-oxo-6-phenyl-1,2-dihydro-1,8-naphthyridine-3-carboxamide] | 20.0015% | 29.6468% | 21.6983% | 276 nM | 499 nM | 466 nM | no significant improvement over RAL | 411 ± 93 nM
Cc1c2c(c(O)c(=O)n1C)C(=O)N(Cc1ccc(F)c(Cl)c1)C2=O [XZ202, 2-(3-chloro-4-fluorobenzyl)-7-hydroxy-4,5-dimethyl-1H-pyrrolo[3,4-c]pyridine-1,3,6(2H,5H)-trione] | 98.3269% | 98.0594% | 97.9688% | – | – | – | – | –
Nc1c(C(=O)NCc2ccc(F)cc2F)c(=O)n(O)c2ncc(CCCOCCO)cc12 [XZ432, 4-amino-N-(2,4-difluorobenzyl)-1-hydroxy-6-(3-(2-hydroxyethoxy)propyl)-2-oxo-1,2-dihydro-1,8-naphthyridine-3-carboxamide] | 18.6132% | 21.9961% | 19.5014% | 177 nM | 156 nM | 173 nM | – | 168 ± 17 nM
O=C1c2ccc(O)c(O)c2C(=O)N1Cc1ccc(F)c(Cl)c1 [XZ89, 2-(3-chloro-4-fluorobenzyl)-4,5-dihydroxyisoindoline-1,3-dione] | 87.9286% | 85.883% | 98.5818% | – | – | – | – | –
Cc1c2c(c(O)c(=O)n1Cc1ccc(F)c(Cl)c1)C(=O)N(C)C2=O [XZ242, 5-(3-chloro-4-fluorobenzyl)-7-hydroxy-2,4-dimethyl-1H-pyrrolo[3,4-c]pyridine-1,3,6(2H,5H)-trione] | 115.41% | 99.061% | 100.661% | – | – | – | – | –
COC(=O)c1c(N)c2cccnc2n(O)c1=O [XZ462, methyl 4-amino-1-hydroxy-2-oxo-1,2-dihydro-1,8-naphthyridine-3-carboxylate] | 111.483% | 96.7056% | 116.696% | – | – | – | – | –
[N-]=[N+]=NCc1cccc(C(=O)/C=C(\O)C(=O)O)c1 [XZ319, (Z)-4-(3-(azidomethyl)phenyl)-2-hydroxy-4-oxobut-2-enoic acid] | 88.4055% | 92.5212% | 100.53% | – | – | – | – | –
